Measurements published in paper PMC11833279, “Versatile Features of an Antibody Mimetic Peptide and Its Variants” (Journal of Peptide Science, 2025).
Like-named read-outs stand apart in the source and are kept apart here. Non-standard residues stand in square brackets, D forms with d. Residues, ends and D or L forms follow the SMILES beside them. *: point of attachment. Biotin = O=C1N[C@H]2[C@H](CS[C@H]2CCCCC(=O)*)N1; Ahx = NCCCCCC(=O)O; βAla = NCCC(=O)O

How the values were obtained:
GALV‐RV = type: cell-based; details: read-out: GALV‐RV transduction enhancing effect EC50; Jurkat cells, GFP‐expressing GALV‐RV, peptide‐virus mix incubated 10 min, GFP by flow cytometry 2 days posttransduction; three independent experiments ± SD
Description: For the generation of GFP‐expressing γ‐retroviral vector pseudotyped with the glycoprotein of gibbon ape leukemia virus (GALV‐RV), 800,000 HEK293T cells were initially seeded and cotransfected as previously described using following plasmids:GFP‐expressing Murine leukemia virus (MLV) vector E200 pcmE26‐gfp (1.15 μg), E848 pCsGPpA‐ed (0.95 μg), and GALV glycoprotein (0.4 μg).
For the determination of transduction enhancement of GFP‐expressing GALV‐RV, 50,000 Jurkat cells (ATCC, TIB‐152) were seeded in 180 μL RPMI medium (Gibco, 11875093) supplemented with 10% inactivated fetal calf serum (FCS, Gibco, 10437028), 2 mM L‐glutamine (PAN‐Biotech, P04–80050), 100 U/mL penicillin, and 100 μg/mL streptomycin (PAN‐Biotech, P06–07050). Different concentrations of peptides were 1:1 (v/v) mixed with GALV‐RV (1280 dilution on cells) and incubated for 10 min. Subsequently, 20 μL of the virus‐peptide mix was added to cells, and 2 days posttransduction, GFP‐expression was analyzed by flow cytometry using CytoFlex (Beckmann Coulter), and the evaluation was carried out with FlowJo™ (Version 10.8.1).

HIV‐1NL4–3 [1] = type: cell-based; details: CEMx174 SEAP indicator cells, HIV‐1NL4–3, SEAP activity three days after infection; mean and standard error of at least three independent experiments; read-out: HIV‐1 neutralizing activity IC50
Description: The plasmid HIV‐1pBRNL4–3, kindly provided by F. Kirchhoff, Ulm, was propagated in XL‐1 Blue competent cells (Stratagene – an Agilent Technologies Division, Waldbronn, Germany) and transfected into 293 T cells using FuGENE HD (Roche, Mannheim, Germany). After 48 h, supernatants were cleared by filtering through 0.22 μm Millex‐GS units (Millipore, Schwalbach, Germany) and stored in aliquots at −80°C.
The indicator cell line CEMx174, which was kindly provided by R. E. Means and R. C. Desrosiers, contained the gene for the secreted alkaline phosphatase (SEAP) under the control of the simian immunodeficiency virus long terminal repeat. Three days after HIV‐1NL4–3 infection, cell culture supernatants were removed and analyzed for SEAP activity using the Phospha‐Light kit (Life Technologies, Darmstadt, Germany) according to the manufacturer's recommendations. Data represent mean and standard error of at least three independently performed experiments.

HIV‐1NL4–3 [2] = details: HIV‐1 neutralization; read-out: HIV‐1 neutralizing activity IC50; cited from earlier work
Source text: Addressing the significance of the disulfide bridge in H1H3, a linear variant (H1H3s) was generated, in which the two cysteine residues were replaced by serine (see Table 1 for peptide sequences).

Molecule	IC50 (HIV‐1NL4–3 [1])	also measured
CC[C@H](C)[C@H](NC(=O)[C@@H](NC(=O)[C@H](Cc1ccccc1)NC(=O)[C@H](CC(N)=O)NC(=O)[C@H](CO)NC(=O)[C@H](Cc1ccccc1)NC(=O)[C@H](CCCNC(=N)N)NC(=O)[C@H](Cc1ccc(O)cc1)NC(=O)CNC(C)=O)C(C)C)C(=O)N[C@@H](Cc1c[nH]cn1)C(=O)N[C@@H](Cc1c[nH]c2ccccc12)C(=O)NCC(=O)NCCC(=O)NCC(=O)NCCCCCC(=O)NCC(=O)N[C@@H](CCCCNC(=O)CCCC[C@@H]1SC[C@@H]2NC(=O)N[C@@H]21)C(=O)NCC(=O)NCCCCCC(=O)N[C@@H](CO)C(=O)N[C@H](C(=O)NCC(=O)N1CCC[C@H]1C(=O)N[C@@H](Cc1ccc(O)cc1)C(=O)N[C@@H](CO)C(=O)N[C@@H](Cc1c[nH]c2ccccc12)C(=O)N[C@@H](CC(=O)O)C(=O)N[C@@H](CCCCN)C(=O)N[C@@H](CO)C(=O)N1CCC[C@H]1C(=O)N[C@@H](CCC(N)=O)C(=O)N[C@@H](CC(=O)O)C(=O)N[C@@H](CC(N)=O)C(=O)N[C@@H](Cc1ccc(O)cc1)C(=O)N[C@@H](CCSC)C(=O)N[C@@H](CC(=O)O)C(=O)N[C@@H](CO)C(N)=O)C(C)C [H1H3s‐D100^bK] (Ac-GYRFSNFVIHWG[βAla]G[Ahx]GK(Biotin)G[Ahx]SVGPYSWDKSPQDNYMDS-NH2)	–	EC50 (GALV‐RV): 0.63 ± 0.04 µM
CC[C@H](C)[C@H](NC(=O)[C@H](NC(=O)[C@H](Cc1ccccc1)NC(=O)[C@@H](CC(N)=O)NC(=O)[C@H](CO)NC(=O)[C@@H](Cc1ccccc1)NC(=O)[C@H](CCCNC(=N)N)NC(=O)[C@@H](Cc1ccc(O)cc1)NC(=O)CNC(C)=O)C(C)C)C(=O)N[C@H](Cc1c[nH]cn1)C(=O)N[C@@H](Cc1c[nH]c2ccccc12)C(=O)NCC(=O)NCCC(=O)NCC(=O)NCCCCCC(=O)NCC(=O)N[C@@H](CCCCNC(=O)CCCC[C@@H]1SC[C@@H]2NC(=O)N[C@@H]21)C(=O)NCC(=O)NCCCCCC(=O)N[C@H](CO)C(=O)N[C@@H](C(=O)NCC(=O)N1CCC[C@@H]1C(=O)N[C@@H](Cc1ccc(O)cc1)C(=O)N[C@H](CO)C(=O)N[C@@H](Cc1c[nH]c2ccccc12)C(=O)N[C@H](CC(=O)O)C(=O)N[C@@H](CC(=O)O)C(=O)N[C@H](CO)C(=O)N1CCC[C@H]1C(=O)N[C@H](CCC(N)=O)C(=O)N[C@@H](CC(=O)O)C(=O)N[C@H](CC(N)=O)C(=O)N[C@@H](Cc1ccc(O)cc1)C(=O)N[C@H](CCSC)C(=O)N[C@@H](CC(=O)O)C(=O)N[C@H](CO)C(N)=O)C(C)C [H1H3s‐L/D] (Ac-G[dY]R[dF]S[dN]F[dV]I[dH]WG[βAla]G[Ahx]GK(Biotin)G[Ahx][dS][dV]G[dP]Y[dS]W[dD]D[dS]P[dQ]D[dN]Y[dM]D[dS]-NH2)	> 60 µM	–
CC[C@@H](C)[C@@H](NC(=O)[C@H](NC(=O)[C@@H](Cc1ccccc1)NC(=O)[C@@H](CC(N)=O)NC(=O)[C@@H](CO)NC(=O)[C@@H](Cc1ccccc1)NC(=O)[C@@H](CCCNC(=N)N)NC(=O)[C@@H](Cc1ccc(O)cc1)NC(=O)CNC(C)=O)C(C)C)C(=O)N[C@H](Cc1c[nH]cn1)C(=O)N[C@H](Cc1c[nH]c2ccccc12)C(=O)NCC(=O)NCCC(=O)NCC(=O)NCCCCCC(=O)NCC(=O)N[C@H](CCCCNC(=O)CCCC[C@@H]1SC[C@@H]2NC(=O)N[C@@H]21)C(=O)NCC(=O)NCCCCCC(=O)N[C@H](CO)C(=O)N[C@@H](C(=O)NCC(=O)N1CCC[C@@H]1C(=O)N[C@H](Cc1ccc(O)cc1)C(=O)N[C@H](CO)C(=O)N[C@H](Cc1c[nH]c2ccccc12)C(=O)N[C@H](CC(=O)O)C(=O)N[C@H](CC(=O)O)C(=O)N[C@H](CO)C(=O)N1CCC[C@@H]1C(=O)N[C@H](CCC(N)=O)C(=O)N[C@H](CC(=O)O)C(=O)N[C@H](CC(N)=O)C(=O)N[C@H](Cc1ccc(O)cc1)C(=O)N[C@H](CCSC)C(=O)N[C@H](CC(=O)O)C(=O)N[C@H](CO)C(N)=O)C(C)C [H1H3s‐allD] (Ac-G[dY][dR][dF][dS][dN][dF][dV][dI][dH][dW]G[βAla]G[Ahx]G[dK](Biotin)G[Ahx][dS][dV]G[dP][dY][dS][dW][dD][dD][dS][dP][dQ][dD][dN][dY][dM][dD][dS]-NH2)	1.9 ± 0.4 µM	–
CC[C@H](C)[C@H](NC(=O)[C@@H](NC(=O)[C@H](Cc1ccccc1)NC(=O)[C@H](CC(N)=O)NC(=O)[C@H](CO)NC(=O)[C@H](Cc1ccccc1)NC(=O)[C@H](CCCNC(=N)N)NC(=O)[C@H](Cc1ccc(O)cc1)NC(=O)CNC(C)=O)C(C)C)C(=O)N[C@@H](Cc1c[nH]cn1)C(=O)N[C@@H](Cc1c[nH]c2ccccc12)C(=O)NCC(=O)NCCC(=O)NCC(=O)NCCCCCC(=O)NCC(=O)N[C@@H](CCCCNC(=O)CCCC[C@@H]1SC[C@@H]2NC(=O)N[C@@H]21)C(=O)NCC(=O)NCCCCCC(=O)N[C@@H](CO)C(=O)N[C@H](C(=O)NCC(=O)N1CCC[C@H]1C(=O)N[C@@H](Cc1ccc(O)cc1)C(=O)N[C@@H](CO)C(=O)N[C@@H](Cc1c[nH]c2ccccc12)C(=O)N[C@@H](CC(=O)O)C(=O)N[C@@H](CC(=O)O)C(=O)N[C@@H](CO)C(=O)N1CCC[C@H]1C(=O)N[C@@H](CCC(N)=O)C(=O)N[C@@H](CC(=O)O)C(=O)N[C@@H](CC(N)=O)C(=O)N[C@@H](Cc1ccc(O)cc1)C(=O)N[C@@H](CCSC)C(=O)N[C@@H](CC(=O)O)C(=O)N[C@@H](CO)C(N)=O)C(C)C [Peptide H1H3s] (Ac-GYRFSNFVIHWG[βAla]G[Ahx]GK(Biotin)G[Ahx]SVGPYSWDDSPQDNYMDS-NH2)	6.3 ± 0.1 µM	–
Ac‐GYRFSNFVIHW‐GB ^b GX ^c G‐K*‐GX‐[CVGPYSWDDSPQDNYMDC]‐NH2 (disulfide) [Peptide H1H3, b12 paratope mimetic peptide presenting heavy chain CDRs H1 and H3, H3 disulfide‐bridged, biotinylated lysine between them]	–	IC50 (HIV‐1NL4–3 [2]): 1.7 µM
